Test results: US20010010814A1, “[…] ENCODING PRO-APOPTOTIC BAX GENE AND USES THEREOF” (priority 1998, published 2001)
Read-outs that look alike come from different tables or passages of the source.

Key:
[1] = system: primary ovarian cancer cells from ascites of patients; assay: MTS cell viability assay, primary ovarian cancer cells; assay type: cell-based, human
Method: Primary ovarian cancer cells were isolated by affinity purification from ascites obtained from patients with ovarian cancer. Fresh ascites was centrifuged to collect cells in suspension. The cells were then washed and resuspended in PBS with 0.1% BSA. The CC49 antibody (provided by Dr. Jeffrey Schlom, NIH, Bethesda, Md.), which specifically recognizes the pancarcinomatous antigen TAG-72, was added to the cell suspension at a concentration of 1 μg/10^7 cells, and incubated at 4° C. for one hour. To isolate the immuno-complex formed by the CC49 antibody and the TAG-72 expressing tumor cells, magnetic Dynabeads (Dynal Inc. Lake success, N.Y.) coated with a secondary anti-panmouse IgG antibody were added at a ratio of 4 beads/cell, according to the protocol of the manufacturer. The bead-targeted complexes were then washed and captured with a magnetic particle concentrator (Dynal Inc.). Finally, the purified cells were released from the beads by brief trypsinization and recovered in RPMI complete medium.
(§1) Cells were seeded in either 6-well or 96-well plates 24 hours before viral infection. […] Cell viability was determined using a calorimetric method with 3-(4,5-dimehtylthiazol-2-yl)-5-(3-carboxymethoxyphenyl)-2-(4-sulfophenyl)-2H-tetrazolium (MTS) according to the instructions of the manufacturer (Promega). […]

[2] = system: SW626 cells; assay: MTS cell viability assay, SW626; assay type: cell-based; settings: Homo sapiens, SW626, 48 h, read-out: IC50 of taxol
Method: (§2) The replication-incompetent adenoviral type 5 recombinant vectors encoding bax (Ad/Bax), and Cre recombinase (Ad/Cre), were generated as described. Ad/LacZ, encoding the E. coli LacZ gene, was provided by Robert Gerald (The Center for Transgene Technology and Gene Therapy, Leuven. Belgium). All recombinant adenoviruses were propagated in 293 cells and purified by centrifugation in CsCl gradients by a standard protocol. For viral infection in dishes, the cells were plated in 6 or 96 wells the day before the experiment. The viruses were then added at a designed multiplicity of infection (moi) and incubated for 1 to 2 hours. […]
as §1
(§3) To determine the cytotoxic effects of Bax, five ovarian cancer cell lines were co-infected with Ad/Bax and Ad/Cre or Ad/lacZ and Ad/Cre at ratio of 5 to 1 at a total moi of 100. After 48 hours, cell viability was determined by MTS assays (FIG. 11). […]
(§4) Stable overexpression of Bax in some cancer cell lines synergizes the killing effect of chemotherapy or radiotherapy. […] Cell viability was measured by an MTS assay. […]

[3] = system: SKOV3.ip1 cells; assay: MTS cell viability assay, SKOV3.ip1; assay type: cell-based; settings: Homo sapiens, 48 h, read-out: IC50 of taxol
Method: as §2, §1, §3, §4

[4] = combined treatment with Bax (Ad/Bax plus Ad/Cre, moi 100)

For `CC(=O)O[C@H]1C(=O)[C@@]2(C)[C@H]([C@H](OC(=O)c3ccccc3)[C@]3(O)C[C@H](OC(=O)[C@H](O)[C@@H](NC(=O)c4ccccc4)c4ccccc4)C(C)=C1C3(C)C)[C@]1(OC(C)=O)CO[C@@H]1C[C@@H]2O` [taxol], the “cell death (MTS)” value ([1]; taxol 20 μg/ml alone, 48 hours) was 15%, the “cell death (MTS)” value ([1]; taxol 20 μg/ml combined with Bax (Ad/Bax and Ad/Cre, 200 moi)) was “over 50%” and the IC50 [2, 4] was 5 µg/mL. For the same molecule, the IC50 ([2]; control cells) was 31 µg/mL, the IC50 [3, 4] was 13 µg/mL and the IC50 ([3]; control cells) was 39 µg/mL.
